Measured values: patent US10538491B2, “4,5-substituted picolinamide and picolinonitrile metabotropic glutamate receptor 2 negative allosteric modulators” (Vanderbilt University, priority 2015, dated 2020)

Target: rat mGlu2 (Rattus norvegicus (Rat), UniProt P31421)
Test: mGlu2 Ca2+ flux assay
Assay type: cell-based
Conditions: for IC50: Gα15 HEK293 cells stably expressing rat mGlu2, glutamate EC80, >10,000 = no plateau, >30,000 = no measurable activity; for remaining activity at 30 µM: amplitude of response in the presence of 30 μM test compound as percentage of maximal response to glutamate, read-out: rat mGlu2 Glu max
Protocol: Gα15 HEK293 cells stably expressing rat mGlu2 were plated in black-walled, clear-bottomed, poly-D-lysine coated 384-well plates in 20 μL of assay medium (DMEM containing 10% dialyzed FBS, 20 mM HEPES, and 1 mM sodium pyruvate) at a density of 12K cells/well. The cells were grown overnight at 37° C. in the presence of 5% CO2. The next day, medium was removed and the cells incubated with 20 μL of 2.3 μM Fluo-4, AM prepared as a 2.3 mM stock in DMSO and mixed in a 1:1 ratio with 10% (w/v) pluronic acid F-127 and diluted in assay buffer (Hank's balanced salt solution, 20 mM HEPES, and 2.5 mM probenecid) for 45 minutes at 37° C. Dye was removed, 20 μL of assay buffer was added, and the plate was incubated for 5 minutes at room temperature.
Ca^2+ flux was measured using the Functional Drug Screening System (FDSS7000, Hamamatsu, Japan). After establishment of a fluorescence baseline for about 3 seconds, the compounds of the present invention were added to the cells, and the response in cells was measured. 2.3 minutes later an EC20 concentration of the mGlu2 receptor agonist glutamate was added to the cells, and the response of the cells was measured for 1.9 minutes; an EC80 concentration of agonist was added and readings taken for an additional 1.7 minutes. All test compounds were dissolved and diluted to a concentration of 10 mM in 100% DMSO. Compounds were then serially diluted 1:3 in DMSO into 10 point concentration response curves, transferred to daughter plates, and further diluted into assay buffer to a 2× stock. Calcium fluorescence measures were recorded as fold over basal fluorescence; raw data was then normalized to the maximal response to glutamate. Antagonism of the agonist response of the mGlu2 receptor in the present invention was observed as a decrease in response to nearly maximal concentrations of glutamate in the presence of compound compared to the response to glutamate in the absence of compound.
The raw data file containing all time points was used as the data source in the analysis template. This was saved by the FDSS as a tab-delimited text file. Data were normalized using a static ratio function (F/F0) for each measurement of the total 360 values per well divided by each well's initial value. Data were then reduced to peak amplitudes (Max−Initial Min) using a time range that starts approximately 3 seconds prior to the glutamate EC80 addition and continues for approximately 90 seconds. This is sufficient time to capture the peak amplitude of the cellular calcium response. Individual amplitudes were expressed as % ECMax by multiplying each amplitude by 100 and then dividing the product by the mean of the amplitudes derived from the glutamate ECMax-treated wells. IC50 values for test compounds were generated by fitting the normalized values versus the log of the test compound concentration (in mol/L) using a 4 parameter logistic equation where none of the parameters were fixed. Each of the three values collected at each concentration of test compound were weighted evenly.
For NAMs, potency (IC50) and maximum response (% Glu Max), i.e. the amplitude of response in the presence of 30 μM test compound as a percentage of the maximal response to glutamate, are reported. […] Compounds with no measurable activity are designated as “>30,000 nM” since the top concentration of compound tested in the assay is 30 μM.

Sequence of rat mGlu2 (P31421 19-872): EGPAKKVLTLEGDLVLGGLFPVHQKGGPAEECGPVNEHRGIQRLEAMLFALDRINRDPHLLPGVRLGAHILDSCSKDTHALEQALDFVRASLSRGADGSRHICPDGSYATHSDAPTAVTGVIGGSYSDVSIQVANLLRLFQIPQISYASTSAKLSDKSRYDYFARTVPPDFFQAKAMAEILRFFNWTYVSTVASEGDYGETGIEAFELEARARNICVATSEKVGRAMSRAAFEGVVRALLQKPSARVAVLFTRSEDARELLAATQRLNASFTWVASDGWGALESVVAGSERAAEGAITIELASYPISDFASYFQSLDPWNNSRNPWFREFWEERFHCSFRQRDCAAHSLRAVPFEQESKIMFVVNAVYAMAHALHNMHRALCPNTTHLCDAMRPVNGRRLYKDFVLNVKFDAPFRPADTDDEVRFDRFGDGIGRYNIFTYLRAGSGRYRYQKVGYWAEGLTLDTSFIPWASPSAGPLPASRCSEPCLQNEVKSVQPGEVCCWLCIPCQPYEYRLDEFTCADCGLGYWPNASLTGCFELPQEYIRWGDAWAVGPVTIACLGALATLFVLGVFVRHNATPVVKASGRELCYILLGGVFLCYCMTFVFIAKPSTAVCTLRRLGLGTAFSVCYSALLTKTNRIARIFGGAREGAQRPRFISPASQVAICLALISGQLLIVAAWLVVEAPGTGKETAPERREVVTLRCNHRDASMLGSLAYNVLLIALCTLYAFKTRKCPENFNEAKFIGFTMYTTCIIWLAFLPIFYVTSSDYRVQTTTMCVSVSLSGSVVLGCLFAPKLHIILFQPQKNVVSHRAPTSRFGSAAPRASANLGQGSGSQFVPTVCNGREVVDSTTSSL

## NC(=O)c1cc(-c2ccc(F)cc2)c(OCCOc2ccc(F)c(Br)c2)cn1 [Compound 103, 5-(2-(3-bromo-4-fluorophenoxy)ethoxy)-4-(4-fluorophenyl)picolinamide]
  IC50: > 10 µM
  remaining activity at 30 µM: 53.7%

## N#Cc1cc(-c2ccc(F)cc2)c(OCCOc2cccnc2)cn1 [Compound 25, 4-(4-fluorophenyl)-5-(2-(pyridin-3-yloxy)ethoxy)picolinonitrile]
  IC50: > 10 µM
  remaining activity at 30 µM: 39%

## CC(Oc1cnc(C#N)cc1-c1ccc(F)cc1)c1ccncc1 (centres unmarked) [Compound 19, 4-(4-fluorophenyl)-5-(1-(pyridin-4-yl)ethoxy)picolinonitrile]
  IC50: > 10 µM
  remaining activity at 30 µM: 27.1%

## CC1(C)CN(CCCOc2cnc(C#N)cc2-c2ccc(F)cc2)CCO1 [Compound 73, 5-(3-(2,2-dimethylmorpholino)propoxy)-4-(4-fluorophenyl)picolinonitrile]
  IC50: > 30 µM

## NC(=O)c1cc(-c2ccc(F)cc2)c(OCCOc2ccccc2F)cn1 [Compound 109, 5-(2-(2-fluorophenoxy)ethoxy)-4-(4-fluorophenyl)picolinamide]
  remaining activity at 30 µM: 2.16%

## CC(CN1CCOCC1)Nc1cnc(C(N)=O)cc1-c1ccc(F)cc1 (centres unmarked) [Compound 134, 4-(4-fluorophenyl)-5-((1-morpholinopropan-2-yl)amino)picolinamide]
  IC50: 2.71 µM
  remaining activity at 30 µM: -3.71%

## Cc1ccc(OC(C)COc2cnc(C#N)cc2-c2ccc(F)cc2)cn1 (centres unmarked) [Compound 62, 4-(4-fluorophenyl)-5-(2-((6-methylpyridin-3-yl)oxy)propoxy)picolinonitrile]
  IC50: 4.63 µM
  remaining activity at 30 µM: 35.8%

## NC(=O)c1cc(-c2ccc(F)cc2)c(OC2CN(c3ccnc(C(F)(F)F)c3)C2)cn1 [Compound 58, 4-(4-fluorophenyl)-5-((1-(2-(trifluoromethyl)pyridin-4-yl)azetidin-3-yl)oxy)picolinamide]
  IC50: 4.14 µM
  remaining activity at 30 µM: 4.3%

## Cc1ccc(COc2cnc(C#N)cc2-c2ccc(F)cc2)cn1 [Compound 14, 4-(4-fluorophenyl)-5-((6-methylpyridin-3-yl)methoxy)picolinonitrile]
  IC50: > 30 µM

## N#Cc1ccc(F)c(OCCOc2cnc(C(N)=O)cc2-c2ccc(F)cc2)c1 [Compound 156, 5-(2-(5-cyano-2-fluorophenoxy)ethoxy)-4-(4-fluorophenyl)picolinamide]
  IC50: 4.23 µM
  remaining activity at 30 µM: -21.7%

## NC(=O)c1cc(-c2ccc(F)cc2)c(COc2cc(F)cc(F)c2)cn1 [Compound 90, 5-((3,5-difluorophenoxy)methyl)-4-(4-fluorophenyl)picolinamide]
  IC50: 2.03 µM
  remaining activity at 30 µM: 0.21%

## COc1ccc(-c2cc(C(N)=O)ncc2OCc2cccnc2)c(F)c1 [Compound 39, 4-(2-fluoro-4-methoxyphenyl)-5-(pyridin-3-ylmethoxy)picolinamide]
  IC50: 0.039 µM
  remaining activity at 30 µM: 1.36%

## CC1CN(CCCOc2cnc(C#N)cc2-c2ccc(F)cc2)CCO1 (centres unmarked) [Compound 72, 4-(4-fluorophenyl)-5-(3-(2-methylmorpholino)propoxy)picolinonitrile]
  IC50: > 30 µM

## CC1CN(CCCOc2cnc(C(N)=O)cc2-c2ccc(F)cc2)CCO1 (centres unmarked) [Compound 97, 4-(4-fluorophenyl)-5-(3-(2-methylmorpholino)propoxy)picolinamide]
  IC50: > 10 µM
  remaining activity at 30 µM: 22%

## N#Cc1ccc(F)c(COc2cnc(C(N)=O)cc2-c2ccc(F)cc2)c1 [Compound 147, 5-((5-cyano-2-fluorobenzyl)oxy)-4-(4-fluorophenyl)picolinamide]
  IC50: 0.313 µM
  remaining activity at 30 µM: 0.73%

## N#Cc1cc(-c2ccc(F)cc2)c(OCCCN2CCOCC2)cn1 [Compound 71, 4-(4-fluorophenyl)-5-(3-morpholinopropoxy)picolinonitrile]
  IC50: > 30 µM

## N#Cc1cc(-c2ccc(F)cc2)c(NCCCN2CCOCC2)cn1 [Compound 6, 4-(4-fluorophenyl)-5-((3-morpholinopropyl)amino)picolinonitrile]
  IC50: > 10 µM
  remaining activity at 30 µM: 49.2%

## Cc1ccc(COc2cnc(C(N)=O)cc2-c2ccc(F)cc2)cn1 [Compound 41, 4-(4-fluorophenyl)-5-((6-methylpyridin-3-yl)methoxy)picolinamide]
  IC50: 0.343 µM
  remaining activity at 30 µM: 1.59%

## CN(CCN1CCOCC1)c1cnc(C(N)=O)cc1-c1ccc(F)cc1 [Compound 136, 4-(4-fluorophenyl)-5-(methyl(2-morpholinoethyl)amino)picolinamide]
  IC50: > 10 µM
  remaining activity at 30 µM: 31%

## NC(=O)c1cc(-c2ccc(F)cc2)c(OCc2ccncc2)cn1 [Compound 44, 4-(4-fluorophenyl)-5-(pyridin-4-ylmethoxy)picolinamide]
  IC50: 0.239 µM
  remaining activity at 30 µM: 0.42%

## N#Cc1cc(-c2ccc(F)cc2)c(OCc2ccncc2)cn1 [Compound 17, 4-(4-fluorophenyl)-5-(pyridin-4-ylmethoxy)picolinonitrile]
  IC50: 1.58 µM
  remaining activity at 30 µM: 62%
concentration-dependent decrease in the glutamate EC80 response
  NAM designation: (Partial NAM)

## NC(=O)c1cc(-c2ccc(F)cc2)c(OCCCOc2cccnc2)cn1 [Compound 128, 4-(4-fluorophenyl)-5-(3-(pyridin-3-yloxy)propoxy)picolinamide]
  IC50: 3.78 µM
  remaining activity at 30 µM: 2.52%

## CC1(C)CN(Cc2cnc(C(N)=O)cc2-c2ccc(F)cc2)CCO1 [Compound 78, 5-((2,2-dimethylmorpholino)methyl)-4-(4-fluorophenyl)picolinamide]
  IC50: 0.531 µM
  remaining activity at 30 µM: -0.32%

## NC(=O)c1cc(-c2ccc(F)cc2)c(NCC2CCOCC2)cn1 [Compound 132, 4-(4-fluorophenyl)-5-(((tetrahydro-2H-pyran-4-yl)methyl)amino)picolinamide]
  IC50: 1.05 µM
  remaining activity at 30 µM: -1.48%

## N#Cc1cc(-c2ccc(F)cc2)c(NCC2CCOCC2)cn1 [Compound 1, 4-(4-fluorophenyl)-5-(((tetrahydro-2H-pyran-4-yl)methyl)amino)picolinonitrile]
  IC50: 6.85 µM
  remaining activity at 30 µM: 5.12%

## NC(=O)c1cc(-c2ccc(F)cc2)c(OCCOc2ccc(F)cc2)cn1 [Compound 107, 5-(2-(4-fluorophenoxy)ethoxy)-4-(4-fluorophenyl)picolinamide]
  IC50: 8.51 µM
  remaining activity at 30 µM: -10.7%

## NC(=O)c1cc(-c2ccc(F)cc2)c(COc2ccc(C(F)(F)F)nc2)cn1 [Compound 91, 4-(4-fluorophenyl)-5-(((6-(trifluoromethyl)pyridin-3-yl)oxy)methyl)picolinamide]
  IC50: 0.639 µM
  remaining activity at 30 µM: 0.51%

## Cc1ncc(OC(C)COc2cnc(C(N)=O)cc2-c2ccc(F)cc2)cn1 (centres unmarked) [Compound 122, 4-(4-fluorophenyl)-5-(2-((2-methylpyrimidin-5-yl)oxy)propoxy)picolinamide]
  IC50: > 10 µM
  remaining activity at 30 µM: 8.04%

## N#Cc1cc(F)cc(COc2cnc(C(N)=O)cc2-c2ccc(F)cc2)c1 [Compound 146, 5-((3-cyano-5-fluorobenzyl)oxy)-4-(4-fluorophenyl)picolinamide]
  IC50: 0.944 µM
  remaining activity at 30 µM: 0.48%

## C[C@@H]1CN(CCOc2cnc(C#N)cc2-c2ccc(F)cc2)C[C@H](C)O1 [Compound 70, 5-(2-((cis)-2,6-Dimethylmorpholino)ethoxy)-4-(4-fluorophenyl)picolinonitrile]
  IC50: > 30 µM

## N#Cc1cc(OCCOc2cnc(C(N)=O)cc2-c2ccc(F)cc2)ccc1F [Compound 154, 5-(2-(3-cyano-4-fluorophenoxy)ethoxy)-4-(4-fluorophenyl)picolinamide]
  IC50: 1.39 µM
  remaining activity at 30 µM: 4.19%

## NC(=O)c1cc(-c2ccc(F)cc2)c(OCc2cc(Br)ccc2F)cn1 [Compound 36, 5-((5-bromo-2-fluorobenzyl)oxy)-4-(4-fluorophenyl)picolinamide]
  IC50: 0.65 µM
  remaining activity at 30 µM: 3.82%
